The source of these data is US20100311585A1, “HERBICIDAL COMPOSITION AND METHOD OF USE THEREOF” (SYNGENTA CROP PROTECTION, INC., priority 2007, published 2010).

Assay [1] deals with Medicago lupulina (black medic). Nature of the assay: Glasshouse trial, control of black medic, post-emergence application. The format is in vivo. Particulars: ethofumesate 210 g ai/ha plus mesotrione at 100 g ai/ha. On the procedure:
A glasshouse trial was carried out. Goosegrass seeds were sown into standard glasshouse potting mix (1:1 v/v Promix: Vero sand soil) contained in 10 cm square plastic pots. Treatments were replicated three times. Mesotrione (in the form Callisto® 480SE) was applied post-emergence to goosegrass (Eleusine indica) at either 100 g ai/ha or 200 g ai/ha with or without ethofumesate (in the form Prograss®). When used, ethofumesate was applied at a rate of 210 g ai/ha, 420 g ai/ha or 840 g ai/ha. The adjuvant system was X-77 at 0.1% v/v in deionised water. 200 litres of herbicide/adjuvant system was used per hectare. General weed control was evaluated at 7 and 14 days after treatment (DAT). It is noted that all herbicides were applied at reduced field rates because herbicide effects are magnified in a glasshouse environment. Rates were chosen to give a 50 to 70% level of control with herbicides applied alone as this allows for detection of any synergistic effect when tank mixtures are used. The results were evaluated using the Colby formula. The expected result for (A+B) is (A+B)−(A×B/100) where A and B are the ‘observed’ results for A and B on their own. […] A glasshouse trial was carried out as described in Example 1, except that Medicago lupulina (black medic) was used in place of goosegrass, and only one rate combination was tested.

Assay [2] has as its system goosegrass (Eleusine indica). Nature of the assay: Glasshouse trial, control of goosegrass, post-emergence application. The format is in vivo. The arrangement: key: % weed control; expected = A+B−(A×B/100) (Colby). Particulars: for Actual (weed control): X-77 0.1% v/v, * indicates synergy. On the procedure: In the following tests, herbicides were applied at reduced field rates because herbicide effects are magnified in a glasshouse environment. The rates tested were selected to give between about 50 and 70% control with herbicides applied alone, so that any synergistic effect could be readily detected when testing mixtures. A glasshouse trial was carried out. Goosegrass seeds were sown into standard glasshouse potting mix (1:1 v/v Promix: Vero sand soil) contained in 10 cm square plastic pots. Treatments were replicated three times. Mesotrione (in the form Callisto® 480SE) was applied post-emergence to goosegrass (Eleusine indica) at either 100 g ai/ha or 200 g ai/ha with or without ethofumesate (in the form Prograss®). When used, ethofumesate was applied at a rate of 210 g ai/ha, 420 g ai/ha or 840 g ai/ha. The adjuvant system was X-77 at 0.1% v/v in deionised water. 200 litres of herbicide/adjuvant system was used per hectare. General weed control was evaluated at 7 and 14 days after treatment (DAT). It is noted that all herbicides were applied at reduced field rates because herbicide effects are magnified in a glasshouse environment. Rates were chosen to give a 50 to 70% level of control with herbicides applied alone as this allows for detection of any synergistic effect when tank mixtures are used. The results were evaluated using the Colby formula. The expected result for (A+B) is (A+B)−(A×B/100) where A and B are the ‘observed’ results for A and B on their own.

Setting [3] is: ethofumesate 210 g ai/ha plus mesotrione at 200 g ai/ha.
Where [4] appears, read: ethofumesate 420 g ai/ha plus mesotrione at 100 g ai/ha.
Where [5] appears, read: ethofumesate 420 g ai/ha plus mesotrione at 200 g ai/ha.
Where [6] appears, read: ethofumesate 840 g ai/ha plus mesotrione at 100 g ai/ha.
Setting [7] is: ethofumesate 840 g ai/ha plus mesotrione at 200 g ai/ha.

In the case of `CCOC1Oc2ccc(OS(C)(=O)=O)cc2C1(C)C` (racemic) [Ethofumesate, (±)-2-ethoxy-2,3-dihydro-3,3-dimethylbenzofuran-5-yl methanesulfonate], the “Expected (weed control, Colby formula)” value stood at 85 in assay [1]; 30 in assay [2] (setting [3]); 25 in assay [2] (setting [4]); 30 in assay [2] (setting [5]); 25 in assay [2] (setting [6]); 30 in assay [2] (setting [7]). The “Actual (weed control)” value in assay [1] (* indicates synergy) is reported as 94*; in assay [2] (setting [3]) it was 45*; in assay [2] (setting [4]), 37*; in assay [2] (setting [5]) it was 52*; in assay [2] (setting [6]), 55*; in assay [2] (setting [7]), 72*.
